Source: patent US20170022171A1, “2,5-DISUBSTITUTED CYCLOPENTANECARBOXYLIC ACIDS AND THEIR USE” (Bayer Pharma Aktiengesellschaft, priority 2014, published 2017)

Columns and labels:
Assay type in all cases: biochemical
MMP-9 = biological target: T1, MMP-9 (Homo sapiens, UniProt P14780); assay: In vitro MMP-9 inhibition test
T1 construct: purchased R&D Systems 911-MP
Source text: (§1) The MMP-mediated amidolytic cleavage of a suitable peptide substrate leads to an increase in fluorescent light here too. The signal intensity of the fluorescent light is directly proportional to the enzyme activity. The active concentration of a test compound at which half the enzyme is inhibited (50% signal intensity of the fluorescent light) is reported as the IC50 value.
(§2) Recombinant MMP-9 (from R&D Systems, 911-MP) is chemically activated in accordance with the manufacturer's instructions using APMA. 1 μl of the test compound to be analysed (as a solution in DMSO, suitable concentrations, for example, 1 nM to 30 μM) is pipetted into 24 μl of activated enzyme (final concentration, for example, 0.1 nM) in reaction buffer (50 mM Tris/HCl pH 7.5, 10 mM CaCl2, 150 mM NaCl, 0.05% Brij®-35) in a white 384-hole microtiter plate (MTP). The enzymatic reaction is started by adding the intramolecularly quenched Mca-Pro-Leu-Gly-Leu-Dpa(Dnp)-Ala-Arg-NH2 substrate (final concentration, for example, 10 μM; R&D Systems, ES-001), so as to result in a total test volume of 50 μl. The course of the MMP-9 reaction is measured by measuring the fluorescence intensity (excitation 320 nm, emission 410 nm) over a suitable period of time (for example over 120 min at a temperature of 32° C.).

MMP-3 = biological target: T2, MMP-3 (Homo sapiens, UniProt P08254); assay: In vitro MMP-3 inhibition test
T2 construct: purchased R&D Systems 513-MP
T2 sequence (P08254 100-477): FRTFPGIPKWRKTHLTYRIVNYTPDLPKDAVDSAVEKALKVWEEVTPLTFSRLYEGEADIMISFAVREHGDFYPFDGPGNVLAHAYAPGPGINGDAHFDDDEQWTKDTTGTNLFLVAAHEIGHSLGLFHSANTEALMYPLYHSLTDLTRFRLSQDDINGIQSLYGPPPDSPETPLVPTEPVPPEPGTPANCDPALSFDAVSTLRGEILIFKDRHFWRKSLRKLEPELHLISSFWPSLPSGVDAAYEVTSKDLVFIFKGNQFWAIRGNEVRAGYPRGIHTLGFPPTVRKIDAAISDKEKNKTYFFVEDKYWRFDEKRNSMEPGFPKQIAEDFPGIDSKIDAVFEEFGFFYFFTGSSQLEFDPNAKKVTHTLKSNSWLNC
Source text: as §1
as §2, with “MMP-3” for “MMP-9”, “513-MP)” for “911-MP)”, “2” for “0.1”, “Mca-Arg-Pro-Lys-Pro-Val-Glu-Nval-Trp-Arg-Lys(Dnp)-NH2” for “Mca-Pro-Leu-Gly-Leu-Dpa(Dnp)-Ala-Arg-NH2”, “ES-002),” for “ES-001),”, “50” for “50 μl.”

[1] = biological target: T3, human macrophage elastase (HME/hMMP-12) (Homo sapiens, UniProt P39900); assay: In vitro HME inhibition test (standard or high-sensitivity); details: in some cases mean values
T3 construct: 0.5 nM HME; purchased R&D Systems 917-MP
T3 sequence (P39900 106-470): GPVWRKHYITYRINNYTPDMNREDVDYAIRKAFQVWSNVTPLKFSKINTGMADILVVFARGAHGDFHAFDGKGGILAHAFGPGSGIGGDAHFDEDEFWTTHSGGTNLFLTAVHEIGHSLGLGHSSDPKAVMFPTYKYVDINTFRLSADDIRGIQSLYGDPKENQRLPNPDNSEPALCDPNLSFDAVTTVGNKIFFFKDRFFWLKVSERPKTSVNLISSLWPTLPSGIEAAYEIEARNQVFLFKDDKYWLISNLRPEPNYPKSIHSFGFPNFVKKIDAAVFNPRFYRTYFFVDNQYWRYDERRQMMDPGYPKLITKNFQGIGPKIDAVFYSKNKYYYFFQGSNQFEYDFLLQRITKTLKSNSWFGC
How it was run: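 Fluorogenic assay: 0.5 nM autoactivated HME with 5 µM Mca-Pro-Leu-Gly-Leu-Glu-Glu-Ala-Dap(Dnp)-NH2 in HEPES pH 7.4 buffer (NaCl, CaCl2, ZnCl2, EDTA, Brij), 2 h at 37 °C; ex 323/em 393 nm. IC50 from fluorescence versus concentration. High-sensitivity format: ~0.05 nM enzyme, ~16 h incubation.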

MMP-10 = biological target: T4, MMP-10 (Homo sapiens, UniProt P09238); assay: In vitro MMP-10 inhibition test
T4 construct: purchased R&D Systems 910-MP
T4 sequence (P09238 99-476): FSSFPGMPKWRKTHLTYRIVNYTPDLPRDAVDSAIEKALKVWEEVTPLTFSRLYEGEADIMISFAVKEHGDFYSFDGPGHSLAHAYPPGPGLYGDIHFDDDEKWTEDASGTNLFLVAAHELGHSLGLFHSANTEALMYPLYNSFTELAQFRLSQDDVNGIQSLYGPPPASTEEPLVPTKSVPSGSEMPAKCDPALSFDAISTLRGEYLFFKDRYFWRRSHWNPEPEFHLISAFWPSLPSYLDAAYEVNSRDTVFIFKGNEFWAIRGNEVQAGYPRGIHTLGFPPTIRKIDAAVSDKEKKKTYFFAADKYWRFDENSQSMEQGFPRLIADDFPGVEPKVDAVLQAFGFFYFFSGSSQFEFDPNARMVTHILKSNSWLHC
Source text: as §1
as §2, with “MMP-10” for “MMP-9”, “910-MP)” for “911-MP)”, “2” for “0.1”, “Mca-Arg-Pro-Lys-Pro-Val-Glu-Nval-Trp-Arg-Lys(Dnp)-NH2” for “Mca-Pro-Leu-Gly-Leu-Dpa(Dnp)-Ala-Arg-NH2”, “ES-002),” for “ES-001),”

MMP-8 = biological target: T5, MMP-8 (Homo sapiens, UniProt P22894); assay: In vitro MMP-8 inhibition test
T5 construct: purchased R&D Systems 908-MP
T5 sequence (P22894 101-467): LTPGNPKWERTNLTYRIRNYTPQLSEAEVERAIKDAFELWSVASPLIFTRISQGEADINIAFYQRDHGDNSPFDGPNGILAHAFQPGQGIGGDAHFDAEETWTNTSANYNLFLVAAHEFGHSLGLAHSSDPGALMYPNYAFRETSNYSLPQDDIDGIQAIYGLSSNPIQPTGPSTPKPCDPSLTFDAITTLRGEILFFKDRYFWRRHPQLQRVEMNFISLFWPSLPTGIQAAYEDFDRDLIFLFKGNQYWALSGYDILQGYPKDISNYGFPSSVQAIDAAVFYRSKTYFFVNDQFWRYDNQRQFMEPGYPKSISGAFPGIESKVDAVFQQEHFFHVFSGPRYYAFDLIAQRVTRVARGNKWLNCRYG
Source text: as §1
as §2, with “MMP-8” for “MMP-9”, “908-MP)” for “911-MP)”, “0.5” for “0.1”

T1 sequence (P14780 107-707 limits assumed): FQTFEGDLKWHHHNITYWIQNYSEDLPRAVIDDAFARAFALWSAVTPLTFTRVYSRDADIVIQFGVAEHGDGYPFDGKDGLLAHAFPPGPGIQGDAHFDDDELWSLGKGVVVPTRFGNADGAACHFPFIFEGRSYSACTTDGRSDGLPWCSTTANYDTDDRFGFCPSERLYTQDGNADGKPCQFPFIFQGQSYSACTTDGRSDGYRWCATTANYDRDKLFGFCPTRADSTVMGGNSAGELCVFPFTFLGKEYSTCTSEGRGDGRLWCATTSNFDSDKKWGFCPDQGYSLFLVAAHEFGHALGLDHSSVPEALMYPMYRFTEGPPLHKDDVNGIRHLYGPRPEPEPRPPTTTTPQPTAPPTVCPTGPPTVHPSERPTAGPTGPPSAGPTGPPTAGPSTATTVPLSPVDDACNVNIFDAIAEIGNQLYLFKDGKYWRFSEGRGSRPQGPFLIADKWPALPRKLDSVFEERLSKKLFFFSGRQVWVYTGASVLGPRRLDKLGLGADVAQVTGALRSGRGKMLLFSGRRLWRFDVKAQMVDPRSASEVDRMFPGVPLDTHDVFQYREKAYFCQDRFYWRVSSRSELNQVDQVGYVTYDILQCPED

Compound | IC50 (MMP-9) [nM] | IC50 (MMP-3) [nM] | IC50 [1] [nM] | IC50 (MMP-10) [nM] | IC50 (MMP-8) [nM]
CCCCCCOc1ccc(C(=O)[C@@H]2CC[C@H](Cn3nnc4ccc(C(F)(F)F)cc4c3=O)[C@H]2C(=O)O)cc1 (single isomer, unassigned) [Example 58, (+)-(1RS,2RS,5SR)-2-[4-(Hexyloxy)benzoyl]-5-{[4-oxo-6-(trifluoromethyl)-1,2,3-benzotriazin-3(4H)-yl]methyl}cyclopentanecarboxylic acid] | 83 | 300 | 0.027 | 29 | 16
O=C(O)[C@@H]1[C@@H](Cn2nnc3ccc(C(F)(F)F)cc3c2=O)CC[C@H]1C(=O)c1ccc(OCCC2CCCC2)cc1 (single isomer, unassigned) [Example 55, (+)-(1RS,2RS,5SR)-2-[4-(2-Cyclopentylethoxy)benzoyl]-5-{[4-oxo-6-(trifluoromethyl)-1,2,3-benzotriazin-3(4H)-yl]methyl}cyclopentanecarboxylic acid] | 940 | 440 | 0.037 | 50 | 30
O=C(O)[C@H]1[C@H](Cn2nnc3ccc(C(F)(F)F)cc3c2=O)CC[C@@H]1C(=O)c1ccc(OCc2ccc(F)cc2)cc1 (racemic) [Example 12, (+/−)-(1RS,2RS,5SR)-2-{4-[(4-Fluorobenzyl)oxy]benzoyl}-5-{[4-oxo-6-(trifluoromethyl)-1,2,3-benzotriazin-3(4H)-yl]methyl}cyclopentanecarboxylic acid] | 5.9 | 28 | 0.019 | 15 | 0.67
O=C(O)[C@H]1[C@H](Cn2nnc3ccccc3c2=O)CC[C@@H]1C(=O)c1ccc(OCc2cccc(Cl)c2)cc1 (racemic) [Example 2, (+/−)-(1RS,2RS,5SR)-2-{4-[(3-Chlorobenzyl)oxy]benzoyl}-5-[(4-oxo-1,2,3-benzotriazin-3(4H)-yl)methyl]cyclopentanecarboxylic acid] | 480 | 2100 | 0.51 | 310 | 440
O=C(O)[C@H]1[C@H](Cn2nnc3ccc(C(F)(F)F)cc3c2=O)CC[C@@H]1C(=O)c1ccc(OCC2CCCCC2)cc1 (racemic) [Example 40, (+/−)-(1RS,2RS,5SR)-2-[4-(Cyclohexylmethoxy)benzoyl]-5-{[4-oxo-6-(trifluoromethyl)-1,2,3-benzotriazin-3(4H)-yl]methyl}cyclopentanecarboxylic acid] | 170 | 180 | 0.048 | 21 | 6.3
CCCCCOc1ccc(C(=O)[C@H]2CC[C@@H](Cn3nnc4ccc(C)cc4c3=O)[C@@H]2C(=O)O)cc1 (racemic) [Example 123, (+/−)-(1RS,2SR,5RS)-2-[(6-Methyl-4-oxo-1,2,3-benzotriazin-3(4H)-yl)methyl]-5-[4-(pentyloxy)benzoyl]cyclopentanecarboxylic acid] | 94 | 540 | 0.088 | 81 | 11
O=C(O)[C@H]1[C@H](Cn2nnc3ccc(C(F)(F)F)cc3c2=O)CC[C@@H]1C(=O)c1ccc(SCc2ccc(Cl)c(Cl)c2)cc1 (racemic) [Example 79, (+/−)-(1RS,2RS,5SR)-2-{4-[(3,4-Dichlorobenzyl)sulphanyl]benzoyl}-5-{[4-oxo-6-(trifluoromethyl)-1,2,3-benzotriazin-3(4H)-yl]methyl}cyclopentanecarboxylic acid] | 3200 | 800 | 0.25 | 310 | 280
O=C(O)[C@@H]1[C@@H](Cn2nnc3ccc(C(F)(F)F)cc3c2=O)CC[C@H]1C(=O)c1ccc(OCC2CCCC2)cc1 (single isomer, unassigned) [Example 44, (+)-(1RS,2RS,5SR)-2-[4-(Cyclopentylmethoxy)benzoyl]-5-{[4-oxo-6-(trifluoromethyl)-1,2,3-benzotriazin-3(4H)-yl]methyl}cyclopentanecarboxylic acid] | 52 | 140 | 0.024 | 28 | 1.1
Cc1ccc2nnn(C[C@@H]3CC[C@H](C(=O)c4ccc(OCc5cccc(OC(F)(F)F)c5)cc4)[C@H]3C(=O)O)c(=O)c2c1 (racemic) [Example 109, (+/−)-(1RS,2SR,5RS)-2-[(6-Methyl-4-oxo-1,2,3-benzotriazin-3(4H)-yl)methyl]-5-(4-{[3-(trifluoromethoxy)benzyl]oxy}benzoyl)cyclopentanecarboxylic acid] | 150 | 840 | 0.14 | 100 | 87
O=C(O)[C@@H]1[C@@H](Cn2nnc3ccc(C(F)(F)F)cc3c2=O)CC[C@H]1C(=O)c1ccc(OCC2CCCCC2)cc1 (single isomer, unassigned) [Example 41, (+)-(1RS,2RS,5SR)-2-[4-(Cyclohexylmethoxy)benzoyl]-5-{[4-oxo-6-(trifluoromethyl)-1,2,3-benzotriazin-3(4H)-yl]methyl}cyclopentanecarboxylic acid] | 51 | 41 | 0.01 | 20 | 1.6
COc1cccc(COc2ccc(C(=O)[C@@H]3CC[C@H](Cn4nnc5ccc(C)cc5c4=O)[C@H]3C(=O)O)cc2)c1 (single isomer, unassigned) [Example 107, (+)-(1RS,2RS,5SR)-2-{4-[(3-Methoxybenzyl)oxy]benzoyl}-5-[(6-methyl-4-oxo-1,2,3-benzotriazin-3(4H)-yl)methyl]cyclopentanecarboxylic acid] | 89 | 730 | 0.035 | 52 | 19
O=C(O)[C@@H]1[C@@H](Cn2nnc3ccc(C(F)(F)F)cc3c2=O)CC[C@H]1C(=O)c1ccc(SCc2cccc(Cl)c2)cc1 (single isomer, unassigned) [Example 77, (+)-(1RS,2RS,5SR)-2-{4-[(3-Chlorobenzyl)sulphanyl]benzoyl}-5-{[4-oxo-6-(trifluoromethyl)-1,2,3-benzotriazin-3(4H)-yl]methyl}cyclopentanecarboxylic acid] | 550 | 100 | 0.04 | 30 | 41
